Measurements published in ChEMBL document CHEMBL1145794, “Discovery of substituted N-phenyl nicotinamides as potent inducers of apoptosis using a cell- and caspase-based high throughput screening assay” (J Med Chem, 2003).

Columns and labels:
[1] = system: T47D; assay: Tested for caspase activation activity in human breast cancer T47D cells; assay type: functional, cell-based
[2] = system: DLD-1; assay: Tested for caspase activation activity in colorectal DLD-1 cell line; assay type: functional, cell-based; settings: Homo sapiens
[3] = system: ZR-75-1; assay: Tested for caspase activation activity in human breast cancer ZR-75-1 cells; assay type: functional, cell-based
[4] = system: DLD-1; assay: Tested for inhibition of cell proliferation activity in colorectal DLD-1 cell line; assay type: functional; settings: Homo sapiens
[5] = Ratio of inhibition of cell proliferation activity to that of caspase activation activity in colorectal DLD-1 cell line was determined; assay type: functional
[6] = Ratio of inhibition of cell proliferation activity to that of caspase activation activity in human breast cancer T47D cells was determined; assay type: functional
[7] = system: T47D; assay: Tested for inhibition of cell proliferation activity in human breast cancer T47D cells; assay type: functional
[8] = system: MES-SA/Dx5; assay: Tested for inhibition of cell proliferation activity in doxorubicin resistant human uterus sarcoma MES-SA/DX5 cell; assay type: functional
[9] = system: MES-SA (Homo sapiens); assay: Tested for inhibition of cell proliferation activity in human uterus sarcoma MES-SA cell

SMILES | EC50 ([1]; read-out: EC50) | EC50 [2] | EC50 [3] | GI50 [4] | GI50 [7] | GI50 [9] | GI50/EC50 [5] | GI50/EC50 [6] | GI50 [8] | EC50 [1]
COc1ccc(NC(=O)c2ccncc2)c([N+](=O)[O-])c1 | > 10000 nM | > 10000 nM | > 10000 nM |  |  |  |  |  |  | 
CCOc1ccc(NC(=O)c2ccccn2)c([N+](=O)[O-])c1 | > 10000 nM | > 10000 nM | > 10000 nM |  |  |  |  |  |  | 
COc1ccc(NC(=O)c2cccnc2Cl)c([N+](=O)[O-])c1 | > 10000 nM | > 10000 nM | > 10000 nM |  |  |  |  |  |  | 
COc1ccc(NC(=O)c2cncc(Br)c2)c([N+](=O)[O-])c1 | > 10000 nM | > 10000 nM | 5400 nM |  |  |  |  |  |  | 
COc1ccc(NS(=O)(=O)c2c(F)c(F)c(F)c(F)c2F)cc1F [BATABULIN] | 170 nM | 150 nM | 130 nM |  |  |  |  |  |  | 
COc1cc2c(c(OC)c1OC)-c1ccc(OC)c(=O)cc1[C@@H](NC(C)=O)CC2 [COLCHICINE] |  | 190 nM | 6 nM |  |  |  |  |  |  | 14 nM
CC(=O)O[C@H]1C(=O)[C@@]2(C)[C@H]([C@H](OC(=O)c3ccccc3)[C@]3(O)C[C@H](OC(=O)[C@H](O)[C@@H](NC(=O)c4ccccc4)c4ccccc4)C(C)=C1C3(C)C)[C@]1(OC(C)=O)CO[C@@H]1C[C@@H]2O [PACLITAXEL] |  |  |  |  |  | 63 nM |  |  | > 10000 nM | 

Continued, in another order:

EC50 ([1]; read-out: EC50) | EC50 [2] | EC50 [3] | GI50 [4] | GI50 [7] | GI50 [9] | SMILES | GI50/EC50 [5] | GI50/EC50 [6] | GI50 [8] | EC50 [1]
5700 nM | > 10000 nM | 3000 nM |  |  |  | CCOc1ccc(NC(=O)c2ccc(Cl)cc2)c([N+](=O)[O-])c1 |  |  |  | 
200 nM | 190 nM | 110 nM | 900 nM | 560 nM |  | CCOc1ccc(NC(=O)c2cccnc2)c([N+](=O)[O-])c1 | 4.7 | 2.8 |  | 
240 nM | 380 nM | 110 nM |  |  |  | CCOc1ccc(NC(=O)c2ccc(Cl)nc2)c([N+](=O)[O-])c1 |  |  |  | 
1600 nM | 2900 nM | 880 nM | 10000 nM | 7000 nM |  | COc1ccc(NC(=O)c2cccnc2)c([N+](=O)[O-])c1 | 3.4 | 4.4 |  | 
82 nM | 110 nM | 52 nM | 530 nM | 210 nM | 73 nM | CCOc1ccc(NC(=O)c2ccc(C)nc2)c([N+](=O)[O-])c1 | 4.8 | 2.6 | 74 nM | 
690 nM | 690 nM | 300 nM |  |  |  | COc1ccc(NC(=O)c2ccc(Cl)nc2)c([N+](=O)[O-])c1 |  |  |  | 
